{
  "source": "paper PMC10615754",
  "about": "(Molecular Psychiatry, 2023)",
  "key": {"[1]": {"molecular_target": "T1, DAT (Mus musculus, UniProt Q61327)", "T1 construct": "from tissue; host or cells: striatum of male SERT+/- mice", "T1 sequence (Q61327 whole entry)": "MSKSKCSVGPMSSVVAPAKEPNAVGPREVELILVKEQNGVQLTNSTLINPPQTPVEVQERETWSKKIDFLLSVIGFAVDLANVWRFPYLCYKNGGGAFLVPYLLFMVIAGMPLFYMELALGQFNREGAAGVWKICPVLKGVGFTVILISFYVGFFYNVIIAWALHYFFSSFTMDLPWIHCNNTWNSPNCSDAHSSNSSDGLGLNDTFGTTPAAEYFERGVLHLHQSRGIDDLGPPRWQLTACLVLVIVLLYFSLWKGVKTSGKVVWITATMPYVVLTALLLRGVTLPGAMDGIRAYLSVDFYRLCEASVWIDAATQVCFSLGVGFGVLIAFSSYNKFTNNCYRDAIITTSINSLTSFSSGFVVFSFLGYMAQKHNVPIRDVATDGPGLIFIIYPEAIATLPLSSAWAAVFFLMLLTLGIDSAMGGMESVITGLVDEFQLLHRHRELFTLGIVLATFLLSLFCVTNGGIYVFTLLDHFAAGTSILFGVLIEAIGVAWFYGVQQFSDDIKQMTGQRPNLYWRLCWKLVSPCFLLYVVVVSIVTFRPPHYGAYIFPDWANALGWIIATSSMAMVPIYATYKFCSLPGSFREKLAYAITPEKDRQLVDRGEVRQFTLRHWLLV", "experiment": "Competition binding of [3H]WIN35,428 to DAT in mouse striatal homogenates", "procedure": "(§1) Thus, in the current experiments, male constitutive SERT+/- mice weighing 25-30g were used, 3 per assay. […] Mice were euthanized by cervical dislocation without use of anesthesia to prevent anesthetic-induced attenuation of transporter binding sites. Whole hippocampi or striatum were harvested and placed in 30 ml of ice-cold buffer specific to each assay.\n(§2) Tissue Collection and Preparation: Mice were humanely euthanized by cervical dislocation and decapitated without anesthesia to collect fresh brain tissues without compromising transporter binding properties. Striatum from each mouse were placed in a round 50 ml polycarbonate tube (Nalge Nunc, Rochester, NY, USA) containing 30 mM sodium phosphate and 0.32 M sucrose for DAT binding as in Reith and Coffey^16. […] All tissues were homogenized at 26,000 RPM for 1 min with a Polytron tissue homogenizer (Brinkman Instruments, Westbury, NY, USA). […] The supernate was discarded, and the pellet re-suspended in 25 ml buffer on ice using a Potter Elvehjem 10 ml glass and teflon homogenizer. The homogenate was re-centrifuged for 10 min at 36,000 x g.\nThe final pellet was re-suspended in 30 mM sodium phosphate and 0.32 M sucrose pH 7.4 at 4°C, and binding assays were carried out in duplicate for 2 hours at 4°C.\nLabeled homogenates were captured through filtration under vacuum onto glass fiber filters pre-soaked in 0.5% polyethyleneimine (Sigma) on a Brandel tissue harvester (Gaithersburg, MD). Filters were washed twice more with 4 ml of buffer.\n(§3) Data Analysis: Binding data were analyzed using non-linear regression curve fitting with GraphPad Prism (La Jolla, CA, USA)."}, "[2]": {"molecular_target": "T2, hOCT3 (Homo sapiens, UniProt O75751)", "T2 construct": "expressed in transfected cells", "T2 sequence (O75751 1-556)": "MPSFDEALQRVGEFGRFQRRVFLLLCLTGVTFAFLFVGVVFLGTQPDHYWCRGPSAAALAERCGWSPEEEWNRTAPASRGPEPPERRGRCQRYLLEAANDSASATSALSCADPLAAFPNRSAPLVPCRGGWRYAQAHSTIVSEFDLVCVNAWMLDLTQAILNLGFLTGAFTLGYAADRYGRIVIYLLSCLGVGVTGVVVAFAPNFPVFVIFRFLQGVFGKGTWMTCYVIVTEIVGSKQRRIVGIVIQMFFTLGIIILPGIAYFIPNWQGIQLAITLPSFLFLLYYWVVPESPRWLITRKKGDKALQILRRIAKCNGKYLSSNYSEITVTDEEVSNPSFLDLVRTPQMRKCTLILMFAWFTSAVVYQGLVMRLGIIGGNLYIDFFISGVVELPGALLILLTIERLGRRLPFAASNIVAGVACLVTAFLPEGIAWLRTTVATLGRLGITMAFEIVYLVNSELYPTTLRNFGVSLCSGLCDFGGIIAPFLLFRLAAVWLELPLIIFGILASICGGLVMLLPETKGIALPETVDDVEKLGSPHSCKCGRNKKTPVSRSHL", "experiment": "Real-time uptake of fluorescent substrate ASP+ in YFP-hOCT3 HEK293 cells", "format": "cell-based", "settings": "3 µM ASP+"}, "[3]": {"tested_on": "DA clearance in dorsal striatum", "experiment": "In vivo high-speed chronoamperometry of DA clearance in dorsal striatum", "settings": "for EC50, half maximally effective amount to inhibit DA clearance (T80) / Emax, maximal inhibition of DA clearance (percent increase in T80): 2 min post-intrastriatal application; for Emax, maximal inhibition of DA clearance (percent increase in T80): 4-parameter logistic fit; for percent change in T20-60 value from baseline / percent change in peak amplitude of DA signal from baseline: dorsal striatum, 2 minutes following administration, mean and SEM; for Effect on DA clearance time (T80): intrastriatal application, ethanol ~0.5-10 mM, cocaine 1-10 µM at recording site, 2 min after drug"}, "[4]": {"tested_on": "OCT3+/+ and OCT3-/- mice", "experiment": "Sensitization of locomotor activity during CPP conditioning sessions", "format": "in vivo", "settings": "for Locomotor sensitization, first vs. 4th session Mean Difference: sexes pooled, ethanol 1 g/kg and/or cocaine […]"}, "[5]": {"molecular_target": "hDAT (Homo sapiens, UniProt Q01959)", "sequence (Q01959 whole entry)": "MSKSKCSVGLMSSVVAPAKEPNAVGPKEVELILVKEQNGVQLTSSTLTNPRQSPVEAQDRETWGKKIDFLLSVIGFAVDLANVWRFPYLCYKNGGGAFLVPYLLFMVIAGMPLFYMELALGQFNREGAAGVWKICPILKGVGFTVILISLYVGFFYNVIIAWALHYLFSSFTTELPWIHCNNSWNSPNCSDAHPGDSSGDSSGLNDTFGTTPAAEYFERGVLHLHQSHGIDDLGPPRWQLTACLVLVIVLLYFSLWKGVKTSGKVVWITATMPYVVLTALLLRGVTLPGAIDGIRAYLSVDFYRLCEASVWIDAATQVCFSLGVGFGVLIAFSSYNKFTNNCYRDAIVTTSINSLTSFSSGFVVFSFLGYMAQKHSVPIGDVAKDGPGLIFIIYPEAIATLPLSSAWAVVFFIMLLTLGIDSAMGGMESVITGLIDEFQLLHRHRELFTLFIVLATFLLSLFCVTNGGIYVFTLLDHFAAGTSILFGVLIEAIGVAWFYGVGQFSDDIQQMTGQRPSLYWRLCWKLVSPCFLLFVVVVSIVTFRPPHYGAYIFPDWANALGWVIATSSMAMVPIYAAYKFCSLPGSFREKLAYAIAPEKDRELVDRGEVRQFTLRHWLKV", "settings": "10 µM APP+"}, "[6]": {"molecular_target": "T2, hOCT3", "set-up": "method as in PMID 29773909", "settings": "previously shown; cited from earlier work"}, "[7]": {"tested_on": "OCT3", "set-up": "method as in PMID 29773909, PMID 16581093", "settings": "at concentrations lower than 100 µM; cited from earlier work"}, "[8]": {"molecular_target": "hSERT (Homo sapiens, UniProt P31645)", "sequence (P31645 whole entry)": "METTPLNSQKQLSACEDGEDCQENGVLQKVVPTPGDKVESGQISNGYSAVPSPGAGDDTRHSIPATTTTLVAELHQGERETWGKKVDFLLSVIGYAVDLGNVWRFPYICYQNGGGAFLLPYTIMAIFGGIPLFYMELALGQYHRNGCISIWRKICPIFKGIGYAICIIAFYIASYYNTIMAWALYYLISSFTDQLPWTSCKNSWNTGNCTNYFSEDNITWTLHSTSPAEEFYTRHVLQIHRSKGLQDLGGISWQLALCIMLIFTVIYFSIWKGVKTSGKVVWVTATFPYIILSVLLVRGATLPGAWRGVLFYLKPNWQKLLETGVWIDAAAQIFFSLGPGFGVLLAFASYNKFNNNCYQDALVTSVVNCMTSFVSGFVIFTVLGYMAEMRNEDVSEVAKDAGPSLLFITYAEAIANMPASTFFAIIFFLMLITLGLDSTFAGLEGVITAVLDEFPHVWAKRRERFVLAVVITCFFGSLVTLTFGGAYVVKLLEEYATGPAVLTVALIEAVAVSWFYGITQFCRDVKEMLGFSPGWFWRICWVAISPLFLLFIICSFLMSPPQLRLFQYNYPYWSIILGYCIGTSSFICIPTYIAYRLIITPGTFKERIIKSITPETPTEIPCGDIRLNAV", "settings": "10 µM cocaine, 10 µM APP+"}, "[9]": {"molecular_target": "hNET (Homo sapiens, UniProt P23975)", "sequence (P23975 whole entry)": "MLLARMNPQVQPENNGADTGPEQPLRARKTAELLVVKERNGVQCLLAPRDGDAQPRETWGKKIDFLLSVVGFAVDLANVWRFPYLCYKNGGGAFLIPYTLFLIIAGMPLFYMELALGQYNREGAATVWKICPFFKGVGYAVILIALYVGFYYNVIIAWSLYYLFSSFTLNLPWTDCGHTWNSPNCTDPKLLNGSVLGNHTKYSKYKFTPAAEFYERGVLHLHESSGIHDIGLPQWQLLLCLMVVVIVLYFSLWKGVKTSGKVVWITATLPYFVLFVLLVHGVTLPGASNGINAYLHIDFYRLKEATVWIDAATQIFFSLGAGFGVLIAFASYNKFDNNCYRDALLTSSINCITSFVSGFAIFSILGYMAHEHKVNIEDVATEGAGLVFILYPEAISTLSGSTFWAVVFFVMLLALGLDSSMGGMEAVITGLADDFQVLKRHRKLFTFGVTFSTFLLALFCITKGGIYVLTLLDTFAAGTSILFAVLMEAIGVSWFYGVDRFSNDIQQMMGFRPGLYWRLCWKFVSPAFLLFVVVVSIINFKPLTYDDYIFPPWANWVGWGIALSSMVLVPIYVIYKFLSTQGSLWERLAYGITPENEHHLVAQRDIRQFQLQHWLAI"}, "[10]": {"tested_on": "OCT3+/+ and OCT3-/- mice", "experiment": "Conditioned place preference (CPP)", "format": "in vivo", "settings": "ethanol 1 g/kg + cocaine […] i.p.", "procedure": "In the same procedure, sensitization of cocaine-induced locomotion (in the presence and absence of ethanol) was measured. Loss of righting reflex (LORR) was assessed as described previously [36].\nFor CPP and sensitization to the locomotor stimulant effects of these drugs, mice were injected i.p. with physiological saline, saline + EtOH (100 mg/kg), saline + cocaine (3.2 mg/kg), or EtOH (100 mg/kg) + cocaine (3.2 mg/kg) immediately prior to assay. […] For LORR behavioral assays, mice were injected i.p. with a sedative dose of EtOH, at 3.2 g/kg (base weight per kilogram body weight).\nCPP. Conditioned place preference (CPP) in rodents, which is often used to model abuse-related drug effects, is shown by a preference for an environment previously paired with a drug compared with an environment previously paired with vehicle^31, 32. Mice were exposed to an unbiased, one-compartment place-conditioning procedure, with sessions conducted once per day (see^12, 13). […]\nThis analysis was followed with separate two-way ANOVAs to further probe sex*genotype and treatment*genotype interactions. […] There were no interaction or main effects of sex on sensitization, so male and female data were pooled for further analysis, in which effects of genotype and days were assessed separately for each drug treatment using two-way repeated measures ANOVA’s. […]"}, "[11]": {"molecular_target": "T3, NET (Mus musculus, UniProt O55192)", "T3 sequence (O55192 whole entry)": "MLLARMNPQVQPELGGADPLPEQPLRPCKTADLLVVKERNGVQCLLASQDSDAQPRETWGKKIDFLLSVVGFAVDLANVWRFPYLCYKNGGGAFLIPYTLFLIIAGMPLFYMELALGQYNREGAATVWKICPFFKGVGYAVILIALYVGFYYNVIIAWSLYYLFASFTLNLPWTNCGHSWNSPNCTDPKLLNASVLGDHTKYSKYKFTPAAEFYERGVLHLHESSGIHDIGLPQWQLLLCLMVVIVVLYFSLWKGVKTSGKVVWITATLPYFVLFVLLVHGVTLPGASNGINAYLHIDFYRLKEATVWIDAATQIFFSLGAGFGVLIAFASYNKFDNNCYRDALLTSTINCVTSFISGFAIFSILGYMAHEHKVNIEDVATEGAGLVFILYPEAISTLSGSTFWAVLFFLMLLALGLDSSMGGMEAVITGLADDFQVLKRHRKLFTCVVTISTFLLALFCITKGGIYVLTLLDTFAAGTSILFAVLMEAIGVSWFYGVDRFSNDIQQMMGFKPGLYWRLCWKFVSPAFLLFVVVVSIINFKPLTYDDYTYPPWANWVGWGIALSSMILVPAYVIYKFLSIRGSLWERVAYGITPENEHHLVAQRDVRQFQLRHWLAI", "settings": "ethanol 3.4 nM up to 1 M, hippocampal homogenates", "procedure": "as §1\nTissue Collection and Preparation: Mice were humanely euthanized by cervical dislocation and decapitated without anesthesia to collect fresh brain tissues without compromising transporter binding properties. Striatum from each mouse were placed in a round 50 ml polycarbonate tube (Nalge Nunc, Rochester, NY, USA) containing 30 mM sodium phosphate and 0.32 M sucrose for DAT binding as in Reith and Coffey^16. […] All tissues were homogenized at 26,000 RPM for 1 min with a Polytron tissue homogenizer (Brinkman Instruments, Westbury, NY, USA). […] The supernate was discarded, and the pellet re-suspended in 25 ml buffer on ice using a Potter Elvehjem 10 ml glass and teflon homogenizer. The homogenate was re-centrifuged for 10 min at 36,000 x g. […]\nas §3"}, "[12]": {"molecular_target": "SERT (Mus musculus, UniProt Q60857)", "sequence (Q60857 whole entry)": "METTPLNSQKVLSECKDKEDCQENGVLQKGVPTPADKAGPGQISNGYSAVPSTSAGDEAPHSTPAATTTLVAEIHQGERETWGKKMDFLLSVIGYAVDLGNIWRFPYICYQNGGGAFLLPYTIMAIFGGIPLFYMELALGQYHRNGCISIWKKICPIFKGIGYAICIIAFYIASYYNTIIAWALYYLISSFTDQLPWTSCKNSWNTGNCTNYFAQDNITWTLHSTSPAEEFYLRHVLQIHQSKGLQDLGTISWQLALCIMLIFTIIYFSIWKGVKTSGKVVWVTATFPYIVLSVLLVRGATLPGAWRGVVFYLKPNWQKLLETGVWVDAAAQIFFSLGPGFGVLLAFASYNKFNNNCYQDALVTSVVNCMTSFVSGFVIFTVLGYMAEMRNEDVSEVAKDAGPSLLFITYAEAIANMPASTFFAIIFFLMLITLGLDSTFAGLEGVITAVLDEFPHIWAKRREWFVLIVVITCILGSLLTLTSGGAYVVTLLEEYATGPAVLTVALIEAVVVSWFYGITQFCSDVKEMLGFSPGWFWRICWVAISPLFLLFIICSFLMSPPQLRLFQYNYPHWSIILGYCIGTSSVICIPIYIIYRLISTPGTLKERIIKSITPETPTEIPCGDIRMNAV", "settings": "ethanol 3.4 nM up to 1 M, hippocampal homogenates", "procedure": "as §1, §2\nRadioligand binding to SERT was performed on hippocampal homogenates according to the procedure of D’Amato et al.^19. […]\nas §3"}, "[13]": {"settings": "rats, systemic administration of 1 mg/kg of ethanol (i.p.); cited from earlier work"}, "[14]": {"molecular_target": "T2, hOCT3", "experiment": "Inhibition of [3H]MPP+ uptake into HEK293 cells stably expressing hOCT3", "format": "cell-based", "procedure": "Mechanically detached HEK293 cells grown to confluence in 4-5 ml flasks were suspended in 3-4 ml of media in a 15 ml polypropylene conical tube.\nCells were harvested on a Brandel 48 well harvester by vacuum filtration onto glass fiber filter strips (Brandel, Gaithersburg, MD, USA) pre-soaked in a 1% polyethalineamine saline solution. […] Protein concentration of the cell suspension was determined after solubilization in 1N NaOH against known concentrations of bovine serum albumen with Bradford reagent as for mouse brain homogenates.\nData Analysis: Experiments were performed in triplicate. Percent of total binding was calculated, and uptake kinetics determined with GraphPad Prism."}, "[15]": {"molecular_target": "T3, NET", "set-up": "from tissue; host or cells: hippocampus of male SERT+/- mice; method as in earlier work", "settings": "known Kd from prior studies, used to calculate Ki; ref 20 (SI); read-out: Kd of hot ligand at NET; cited from earlier work"}},
  "data": [
    {"smiles": "Fc1ccc(C(OCCN2CCN(CCCc3ccccc3)CC2)c2ccc(F)cc2)cc1", "note": "[GBR12909]", "values": [
      {"measurement": "Ki", "setting": "[1]; 2.7 nM [3H]WIN35,428, striatal homogenates, mean (95% CI), N = 3 mice, read-out: Ki for displacement of [3H]WIN35,428 binding to DAT", "value": 0.001, "unit": "µM"}
    ]},
    {"smiles": "COC(=O)[C@H]1[C@@H](c2ccc(F)cc2)C[C@@H]2CC[C@H]1N2C", "note": "[[^3H]WIN35,428]", "values": [
      {"measurement": "Kd", "setting": "[1]; saturation assays on striatum of 5 C57BL/6J mice, used to calculate Ki, read-out: Kd of hot ligand at DAT", "value": 0.0078, "unit": "µM"}
    ]},
    {"smiles": "C[C@]12C[C@H](O)[C@H]3[C@@H](CCC4=CC(=O)CC[C@@]43C)[C@@H]1CC[C@@H]2C(=O)CO", "note": "[corticosterone]", "values": [
      {"measurement": "Block of ASP+ uptake", "setting": "[2]; 10 µM corticosterone", "value": "fully blocked uptake of ASP^+"}
    ]},
    {"smiles": "COC(=O)[C@H]1[C@@H](OC(=O)c2ccccc2)C[C@@H]2CC[C@H]1N2C", "note": "[cocaine]", "values": [
      {"measurement": "EC50, half maximally effective amount to inhibit DA clearance (T80)", "setting": "[3]; OCT3+/+ mice", "value": "35 ± 9", "unit": "pmol"},
      {"measurement": "Emax, maximal inhibition of DA clearance (percent increase in T80)", "setting": "[3]; OCT3+/+ mice", "value": "150 ± 13", "unit": "%"},
      {"measurement": "percent change in T20-60 value from baseline", "setting": "[3]; OCT3+/+ mice", "value": "140 ± 8 (16)**/^† percent"},
      {"measurement": "percent change in peak amplitude of DA signal from baseline", "setting": "[3]; OCT3+/+ mice", "value": "109 ± 14 (16) percent"},
      {"measurement": "Effect on DA clearance time (T80)", "setting": "[3]; OCT3+/+ mice", "value": "inhibited DA clearance"},
      {"measurement": "EC50, half maximally effective amount to inhibit DA clearance (T80)", "setting": "[3]; OCT3-/- mice", "value": "23 ± 16", "unit": "pmol"},
      {"measurement": "Emax, maximal inhibition of DA clearance (percent increase in T80)", "setting": "[3]; OCT3-/- mice", "value": "154 ± 15", "unit": "%"},
      {"measurement": "percent change in T20-60 value from baseline", "setting": "[3]; OCT3-/- mice", "value": "148 ± 14 (15) percent"},
      {"measurement": "percent change in peak amplitude of DA signal from baseline", "setting": "[3]; OCT3-/- mice", "value": "106 ± 16 (15) percent"},
      {"measurement": "Effect on DA clearance time (T80)", "setting": "[3]; OCT3-/- mice", "value": "inhibited DA clearance"},
      {"measurement": "Locomotor sensitization, first vs. 4th session Mean Difference", "setting": "[4]; OCT3+/+ mice", "value": -9.84},
      {"measurement": "Locomotor sensitization, first vs. 4th session Mean Difference", "setting": "[4]; OCT3-/- mice", "value": -31.91},
      {"measurement": "Block of APP+ uptake into hDAT HEK293 cells", "setting": "[5]; 10 µM cocaine", "value": "blocked APP^+ uptake"},
      {"measurement": "Block of fluorescent substrate uptake in hOCT3 HEK293 cells", "setting": "[6]", "value": "does not block fluorescent substrate uptake"},
      {"measurement": "Activity at OCT3", "setting": "[7]", "value": "does not have activity at OCT3"},
      {"measurement": "Block of APP+ uptake into hSERT HEK293 cells", "setting": "[8]", "value": "blocked APP^+ uptake"}
    ]},
    {"smiles": "CCO", "note": "[ethanol]", "values": [
      {"measurement": "Displacement of [3H]WIN35,428 binding to DAT", "setting": "[1]; ethanol 3.4 nM up to 1 M, striatal homogenates", "value": "did not displace"},
      {"measurement": "percent change in T20-60 value from baseline", "setting": "[3]; OCT3+/+ mice", "value": "123 ± 8 (14) percent"},
      {"measurement": "percent change in peak amplitude of DA signal from baseline", "setting": "[3]; OCT3+/+ mice", "value": "80 ± 8 (14) percent"},
      {"measurement": "Effect on DA clearance time (T80)", "setting": "[3]; OCT3+/+ mice", "value": "increased T80 DA clearance time"},
      {"measurement": "percent change in T20-60 value from baseline", "setting": "[3]; OCT3-/- mice", "value": "100 ± 6 (17)^###/$$ percent"},
      {"measurement": "percent change in peak amplitude of DA signal from baseline", "setting": "[3]; OCT3-/- mice", "value": "70 ± 8 (17) percent"},
      {"measurement": "Effect on DA clearance time (T80)", "setting": "[3]; OCT3-/- mice", "value": "did not inhibit DA clearance"},
      {"measurement": "Inhibition of APP+ uptake into hNET HEK293 cells", "setting": "[9]", "value": "only modestly inhibited uptake"},
      {"measurement": "Locomotor sensitization, first vs. 4th session Mean Difference", "setting": "[4]; OCT3+/+ mice", "value": "−12.01"},
      {"measurement": "Sensitization of locomotor activity", "setting": "[4]; ethanol alone, OCT3+/+ and OCT3-/- mice", "value": "no ethanol-induced sensitization"},
      {"measurement": "Potentiation of CPP for cocaine by ethanol", "setting": "[10]", "value": "did not potentiate CPP for cocaine"},
      {"measurement": "Displacement of [3H]nisoxetine binding to NET", "setting": "[11]", "value": "did not displace"},
      {"measurement": "Displacement of [3H]citalopram binding to SERT", "setting": "[12]", "value": "did not displace"},
      {"measurement": "Dialysate ethanol levels in the nucleus accumbens", "setting": "[13]", "value": "approximately 6 mM"},
      {"measurement": "Inhibition of APP+ uptake into hDAT HEK293 cells", "setting": "[5]; highest ethanol concentration tested (100 mM)", "value": "only modestly inhibited uptake"},
      {"measurement": "Ki", "setting": "[14]; hOCT3 HEK293 cells, N = 5 replicate assays in triplicate", "value": "4200 ± 200", "unit": "µM"},
      {"measurement": "Inhibition of ASP+ uptake", "setting": "[2]; 30 mM ethanol, A.U.C. T80-150 s", "value": "~ 50%"},
      {"measurement": "Block of ASP+ uptake", "setting": "[2]; 100 mM ethanol", "value": "fully blocked uptake of ASP^+"}
    ]},
    {"smiles": "CNCCC(Oc1ccccc1OC)c1ccccc1", "note": "(stereo not drawn) [[^3H]Nisoxetine]", "values": [
      {"measurement": "Kd", "setting": "[15]", "value": 0.0025, "unit": "µM"}
    ]},
    {"smiles": "C[n+]1ccc(-c2ccccc2)cc1", "note": "[[^3H]MPP^+, 1-methyl-4-phenylpyridinium]", "values": [
      {"measurement": "Km", "setting": "[14]; used to determine Ki values, read-out: Km for uptake in OCT3 over-expressing cells", "value": 1000, "unit": "µM"}
    ]}
  ]
}
